Read-outs that look alike come from different tables or passages of the source.
How the values were obtained:
[1] = target: T1, human ileal/renal bile acid transporter (Homo sapiens, UniProt Q12908, S171A); test: Anion specificity of taurocholate uptake in HIBAT-transfected COS cells; conditions: for taurocholate uptake on replacing chloride (in words): anion in place of chloride; for Taurocholate Uptake, percentage of control: control = uptake in the presence of NaCl, 15 min, 137000 µM
T1 sequence (Q12908 1-348 S171A): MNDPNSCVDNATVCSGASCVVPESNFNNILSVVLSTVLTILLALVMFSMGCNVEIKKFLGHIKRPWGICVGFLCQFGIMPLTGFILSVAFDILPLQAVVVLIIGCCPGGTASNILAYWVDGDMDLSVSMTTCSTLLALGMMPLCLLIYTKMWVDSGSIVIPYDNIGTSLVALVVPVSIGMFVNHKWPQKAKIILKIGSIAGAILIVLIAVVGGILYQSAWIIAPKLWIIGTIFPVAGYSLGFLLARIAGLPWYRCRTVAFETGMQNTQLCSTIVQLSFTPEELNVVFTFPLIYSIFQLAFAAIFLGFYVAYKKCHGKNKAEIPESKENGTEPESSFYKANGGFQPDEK
Experimental: COS cells were seeded (1.5×10^6 cells/100 mm dish) in DMEM and transfected the following day with pCMV5-HIBAT or pCMV2-βgalactosidase (5 μg) by the DEAE-dextran method. On day 2, each group of transfected cells was treated with trypsin, pooled, and replated in 24-well culture plates at 7×10^4 cells/well. […] The cells were then lysed in 0.1N NaOH and aliquots were taken to determine protein and cell-associated radioactivity. […] Data are also given as percentage of control (uptake in the presence of NaCl).

[2] = target: T2, ileal Na^+ /bile acid cotransporter (IBAT) (Cricetulus griseus, UniProt Q60414); test: Inhibition of [^3 H]taurocholate uptake by organic anions in pIBAT-transfected COS cells (FIG. 6B); type: cell-based, hamster; conditions: 100 μM unlabeled inhibitor, 5 μM [^3 H]taurocholate
T2 construct: The hamster IBAT cDNA encodes a protein of 348 amino acids; expressed in transfected cells; host or cells: COS-1 cells, transient DEAE-dextran transfection with pIBAT (cDNA in pCMX)
T2 sequence (Q60414 1-348): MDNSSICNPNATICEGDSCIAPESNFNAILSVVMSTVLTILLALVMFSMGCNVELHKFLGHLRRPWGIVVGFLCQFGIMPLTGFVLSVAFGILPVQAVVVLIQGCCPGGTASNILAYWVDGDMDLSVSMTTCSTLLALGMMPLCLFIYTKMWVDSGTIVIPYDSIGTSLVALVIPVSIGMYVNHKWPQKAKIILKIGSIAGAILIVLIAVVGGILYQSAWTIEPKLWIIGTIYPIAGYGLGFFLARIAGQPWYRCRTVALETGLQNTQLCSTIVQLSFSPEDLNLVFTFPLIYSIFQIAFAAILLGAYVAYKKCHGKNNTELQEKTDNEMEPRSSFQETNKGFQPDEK
Experimental: FIG. 6B. […] COS cells were plated and transfected as described in the description of FIG. 4 (immediately above).
(§1) On day 0, dishes of 1.50×10^6 cells per 100-mm dish were plated in medium A. On day 1, the cells were transfected by the DEAE-dextran method (Esser et al., 1988) with 5 μg plasmid DNA. […] After the indicated amount of time at 37° C., the medium was removed, and each cell monolayer was washed and processed to determine cell-associated protein and radioactivity as described above.

[3] = tested on: liver membranes; conditions: cited from earlier work
[4] = target: T3, human ileal/renal bile acid transporter (Homo sapiens, UniProt Q12908); test: Cation specificity of taurocholate uptake in HIBAT-transfected COS cells; type: cell-based; conditions: 137 mM cation, 5 μM [^3 H]taurocholate, 15 min, 37° C., mean±SD of triplicate
T3 construct: were fused to make a single clone encoding the entire gene; expressed in transfected cells; host or cells: COS cells, transient DEAE-dextran transfection with pCMV5-HIBAT
T3 sequence (Q12908 1-348 S171A): T1 sequence (Q12908 1-348 S171A)
Experimental: (§2) COS cells were seeded (1.5×10^6 cells/100 mm dish) in DMEM and transfected the following day with pCMV5-HIBAT or pCMV2-βgalactosidase (5 μg) by the DEAE-dextran method. On day 2, each group of transfected cells was treated with trypsin, pooled, and replated in 24-well culture plates at 7×10^4 cells/well. […] The cells were then lysed in 0.1N NaOH and aliquots were taken to determine protein and cell-associated radioactivity. […] Data are also given as percentage of control (uptake in the presence of sodium).

[5] = tested on: ileal/renal bile acid transporter; conditions: cation replacing Na^+; cited from earlier work
[6] = target: T1, human ileal/renal bile acid transporter; test: Cation specificity of taurocholate uptake in HIBAT-transfected COS cells; type: cell-based; set-up: were fused to make a single clone encoding the entire gene; expressed in transfected cells; host or cells: COS cells, transient DEAE-dextran transfection with pCMV5-HIBAT; conditions: for Taurocholate Uptake, percentage of control: control = uptake in the presence of sodium, 15 min, 137000 µM
Experimental: as §2

[7] = target: T1, human ileal/renal bile acid transporter; test: Substrate specificity: [^3 H]taurocholate competition in HIBAT-transfected COS cells (Dixon plot); type: cell-based; set-up: were fused to make a single clone encoding the entire gene; expressed in transfected cells; host or cells: COS cells, transient DEAE-dextran transfection with pCMV5-HIBAT
Description: It is the ileal/renal bile acid transporter system's remarkable substrate specificity that makes it an appealing pharmacological target for the treatment of hypercholesterolemia by interrupting the enterohepatic circulation of bile acids. […] These studies of the major bile acid species were later extended in animal model systems to include various chemical derivatives of bile acids. However, the affinity of the human ileal/renal bile acid transporter for these natural bile acids has never been studied systematically. In addition to bile acids, the transport of other organic anions has been studied. […] The Km, Vmax, and Ki values were determined using Eadie-Hofstee and Dixon plot analysis.

[8] = target: T2, ileal Na^+ /bile acid cotransporter (IBAT); test: Competition for [^3 H]taurocholate uptake in pIBAT-transfected COS cells (transport specificity, FIG. 6A); type: cell-based, hamster; conditions: for inhibition of [^3 H]taurocholate uptake: 50 μM unlabeled competitor, 5 μM [^3 H]taurocholate (10-fold molar excess); for effect on [^3 H]taurocholate uptake (in words): 50 μM competitor, compared with taurocholate
Experimental: FIG. 6A. Transport specificity of pIBAT-transfected COS cells in the presence of competitors. COS cells were plated and transfected as described in the description of FIG. 4 (immediately above).
as §1
To examine the transport specificity of the IBAT protein, COS cells were transfected with the IBAT cDNA and incubated with 50 μM unlabeled bile acid or other competitor.

[9] = tested on: ileal transporter; conditions: in vivo; cited from earlier work
[10] = tested on: liver taurocholate uptake; conditions: cited from earlier work
[11] = target: T2, ileal Na^+ /bile acid cotransporter (IBAT); test: Sodium-dependence of taurocholate uptake in IBAT-transfected COS cells; type: cell-based, hamster
Experimental: as §1

[12] = tested on: cholestasis; conditions: patients with cholestasis; cited from earlier work

## CC(=O)O [Acetate, sodium acetate]
[1]
  taurocholate uptake on replacing chloride (in words): markedly reduced

## O=C1OC(c2ccc(O)c(S(=O)(=O)O)c2)(c2ccc(O)c(S(=O)(=O)O)c2)c2c(Br)c(Br)c(Br)c(Br)c21 [BSP, bromosulfophthalein]
[2]
  inhibition of [^3 H]taurocholate uptake (in words): not to be significantly inhibited
[2]; listed as bromosulfophthalein (BSP)
  inhibition of [^3 H]taurocholate uptake (in words): not inhibited
[3]
  inhibition of Na^+ -dependent taurocholate uptake (in words): shown to inhibit

## [Cs+] [Cesium]
[4]
  Taurocholate Uptake: 0.2 ± 0.01 pmol/min/mg
[5]
  effect of replacing Na^+ on active taurocholate transport (in words): significantly inhibited
[6]
  Taurocholate Uptake, percentage of control: 2%

## C[C@H](CCC(=O)O)[C@H]1CC[C@H]2[C@@H]3[C@H](O)C[C@@H]4C[C@H](O)CC[C@]4(C)[C@H]3CC[C@]12C [Chenodeoxycholate]
[7]
  Ki: 3.3 ± 1.9 µM

## Cl [Chloride]
[1]
  Taurocholate Uptake, percentage of control: 100%

## C[C@H](CCC(=O)O)[C@H]1CC[C@H]2[C@@H]3[C@H](O)C[C@@H]4C[C@H](O)CC[C@]4(C)[C@H]3C[C@H](O)[C@]12C [Cholate]
[8]
  inhibition of [^3 H]taurocholate uptake: 51%

## O=C(O)CC(O)(CC(=O)O)C(=O)O [Citrate]
[1]
  taurocholate uptake on replacing chloride (in words): markedly reduced

## O=S(=O)(O)c1cc(N=C=S)ccc1C=Cc1ccc(N=C=S)cc1S(=O)(=O)O [DIDS, 4,4'-diisothiocyano-2,2'-disulfonic acid stilbene]
[2]
  inhibition of [^3 H]taurocholate uptake (in words): not to be significantly inhibited
[2]; listed as 4,4'-diisothiocyano-2,2'-disulfonic acid stilbene (DIDS)
  inhibition of [^3 H]taurocholate uptake (in words): not inhibited
[3]
  inhibition of Na^+ -dependent taurocholate uptake (in words): shown to inhibit
[9]
  effect against the ileal transporter (in words): ineffective
[10]
  competition for liver taurocholate uptake (in words): compete for liver taurocholate uptake

## C[C@H](CCC(=O)O)[C@H]1CC[C@H]2[C@@H]3CC[C@@H]4C[C@H](O)CC[C@]4(C)[C@H]3C[C@H](O)[C@]12C [Deoxycholate]
[7]
  Ki: 6.4 ± 2.5 µM

## [Li] [Lithium]
[4]
  Taurocholate Uptake: 0.3 ± 0.04 pmol/min/mg
[5]
  effect of replacing Na^+ on active taurocholate transport (in words): significantly inhibited

## [K+] [Potassium]
[11]; in place of 137 mM Na^+, equal concentration
  support of [^3 H]taurocholate uptake (in words): unable to support
[4]
  Taurocholate Uptake: 0.3 ± 0.17 pmol/min/mg
[5]
  effect of replacing Na^+ on active taurocholate transport (in words): significantly inhibited
[6]; cation replacing Na^+
  taurocholate uptake on replacing Na^+ (in words): dramatically reduced
[6]
  Taurocholate Uptake, percentage of control: 3%

## [Rb] [Rubidium]
[4]
  Taurocholate Uptake: 0.3 ± 0.09 pmol/min/mg
[5]
  effect of replacing Na^+ on active taurocholate transport (in words): significantly inhibited
[6]
  Taurocholate Uptake, percentage of control: 3%

## [Na+] [Sodium]
[11]; 137 mM sodium, 5 μM [^3 H]taurocholate, 15 minutes
  taurocholate uptake (100% of control value): 134±26 pmoles min^-1 mg^-1 protein
[4]
  Taurocholate Uptake: 9.2 ± 0.41 pmol/min/mg
[6]
  Taurocholate Uptake, percentage of control: 100%

## O=S(=O)(O)O [Sulfate]
[1]
  Taurocholate Uptake, percentage of control: 69%

## C[C@H](CCC(=O)NCCS(=O)(=O)O)[C@H]1CC[C@H]2[C@@H]3[C@H](O)C[C@@H]4C[C@H](O)CC[C@]4(C)[C@H]3CC[C@]12C [Taurochenodeoxycholate, taurochenodeoxycholate]
[8]
  effect on [^3 H]taurocholate uptake (in words): competed more effectively
  inhibition of [^3 H]taurocholate uptake: 87%
[8]; listed as taurochenodeoxycholic acid
  effect on [^3 H]taurocholate uptake (in words): more effective competitors
[7]; read-out: Apparent Ki
  Ki: 3.2 ± 0.5 µM

## C[C@H](CCC(=O)NCCS(=O)(=O)O)[C@H]1CC[C@H]2[C@@H]3CC[C@@H]4C[C@H](O)CC[C@]4(C)[C@H]3C[C@H](O)[C@]12C [Taurodeoxycholate, taurodeoxycholate]
[8]
  effect on [^3 H]taurocholate uptake (in words): competed more effectively
  inhibition of [^3 H]taurocholate uptake: 80%
[8]; listed as taurodeoxycholic acid
  effect on [^3 H]taurocholate uptake (in words): more effective competitors
[7]
  Ki: 17.3 ± 3.9 µM

## C[C@H](CCC(=O)NCCS(=O)(=O)O)[C@H]1CC[C@H]2[C@@H]3[C@@H](O)C[C@@H]4C[C@H](O)CC[C@]4(C)[C@H]3CC[C@]12C [Tauroursodeoxycholate]
[7]; read-out: Apparent Ki
  Ki: 28.4 ± 7.4 µM

## C[C@H](CCC(=O)O)[C@H]1CC[C@H]2[C@@H]3[C@@H](O)C[C@@H]4C[C@H](O)CC[C@]4(C)[C@H]3CC[C@]12C [Ursodeoxycholate, Ursodeoxycholic acid]
[12]
  treatment outcome (in words): improves liver function, but does not stop the progression of the disease
[7]
  Ki: 77.1 ± 17.2 µM

## C=CC1=C(C)/C(=C/c2[nH]c(Cc3[nH]c(/C=C4\NC(=O)C(C)=C4C=C)c(C)c3CCC(=O)O)c(CCC(=O)O)c2C)NC1=O [bilirubin]
[9]
  effect against the ileal transporter (in words): ineffective
[10]
  competition for liver taurocholate uptake (in words): compete for liver taurocholate uptake

## CC1(C)C(/C=C/C=C/C=C/C=C2\N(CCCCS(=O)(=O)O)c3ccc4ccccc4c3C2(C)C)=[N+](CCCCS(=O)(=O)[O-])c2ccc3ccccc3c21 [indocyanine green]
[9]
  effect against the ileal transporter (in words): ineffective
[10]
  competition for liver taurocholate uptake (in words): compete for liver taurocholate uptake

## NCCS(=O)(=O)O [taurine]
[8]
  effect on [^3 H]taurocholate uptake (in words): limited effect

## Phosphate
[1]
  taurocholate uptake on replacing chloride (in words): markedly reduced
  Taurocholate Uptake, percentage of control: 31%

## phalloidin
[9]
  effect against the ileal transporter (in words): ineffective
[10]
  competition for liver taurocholate uptake (in words): compete for liver taurocholate uptake

From patent US5869265A, “Ileal bile acid transporter compositions and methods” (Wake Forest University, priority 1996, dated 1999)
